Data as given in patent publication US20260256789A1, “METHODS FOR TREATMENT OF CANCER” (Frontier Medicines Corporation, priority 2022, published 2026).

Molecular target: T1, KRAS G12C (GMPPNP-loaded) and cRAF Ras-binding domain (Homo sapiens, UniProt P01116, C118S/C51S/C80L/G12C)
T1 construct: truncated version comprising amino acids 1-169
Test: Inhibition of KRAS G12C and cRAF binding (AlphaScreen)
Settings: KRAS G12C preloaded with GTP analogue GMPPNP, 2 hours preincubation
Outline: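 AlphaScreen used biotin-AviTag KRAS G12C (Cys-light, aa 1-169; 0.5 nM), GMPPNP-loaded, preincubated 2 h with compound (top 50 μM, 1:3, 10 points, 2% DMSO) in pH 7.4 Hepes buffer with 10 μM GMPPNP. GST-cRAF RBD (aa 50-131; 0.75 nM) plus beads were then added for 60-90 min at room temperature, and IC50 came from a 4-parameter fit.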

T1 sequence (P01116 1-169 isoform P01116-2 G12C/C51S/C80L/C118S): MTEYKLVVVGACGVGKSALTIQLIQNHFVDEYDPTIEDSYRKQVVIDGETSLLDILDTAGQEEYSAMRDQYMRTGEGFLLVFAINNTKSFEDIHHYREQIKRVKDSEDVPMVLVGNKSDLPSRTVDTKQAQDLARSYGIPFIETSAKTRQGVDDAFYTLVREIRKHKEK

Row | SMILES | IC50 [nM]
1 | CC(C)c1noc(/C=C/C(=O)N2CC[C@@H](N(C)c3nc(OC[C@@]45CCCN4C[C@H](F)C5)nc4c(F)c(-c5nc(N)ccc5F)ncc34)C2)n1 [Example 178, (E)-1-((R)-3-((7-(6-amino-3-fluoropyridin-2-yl)-8-fluoro-2-(((2R,7aS)-2-fluorotetrahydro-1H-pyrrolizin-7a(5H)-yl)methoxy)pyrido[4,3-d]pyrimidin-4-yl)(methyl)amino)pyrrolidin-1-yl)-3-(3-isopropyl-1,2,4-oxadiazol-5-yl)prop-2-en-1-one] | ≥ 500
2 | CN1CC[C@@H]1/C=C/C(=O)N1CC[C@@H](N(C)c2nc(OC[C@@]34CCCN3C[C@H](F)C4)nc3c(F)c(-c4cccc(Cl)c4C4CC4)ncc23)C1 [Example 227] | < 10
3 | CN(c1nc(OC[C@@]23CCCN2C[C@H](F)C3)nc2c(F)c(-c3nc(N)cc4cccc(F)c34)ncc12)[C@@H]1CCN(C(=O)/C=C/CN2CCOCC2)C1 [Example 167, (E)-1-((R)-3-((7-(3-amino-8-fluoroisoquinolin-1-yl)-8-fluoro-2-(((2R,7aS)-2-fluorotetrahydro-1H-pyrrolizin-7a(5H)-yl)methoxy)pyrido[4,3-d]pyrimidin-4-yl)(methyl)amino)pyrrolidin-1-yl)-4-morpholinobut-2-en-1-one] | ≥ 500
4 | C=CC(=O)N1CC[C@@H](N(C)c2nc(OC[C@@]34CCCN3C[C@H](F)C4)nc3c(F)c(-c4cccc(C(F)(F)F)c4C4CC4)ncc23)C1 [Example 198] | ≥ 500
5 | C=CC(=O)N1CC[C@@H](N(C)c2nc(OC[C@@]34CCCN3C[C@H](F)C4)nc3c(F)c(-c4nc(N)ccc4OC(F)F)ncc23)C1 [Example 261] | ≥ 500
6 | CN(c1nc(OC[C@@]23CCCN2C[C@H](F)C3)nc2c(F)c(-c3cccc(Cl)c3C3CC3)ncc12)[C@@H]1CCN(C(=O)/C=C/CN2CC[C@H](F)C2)C1 [Example 238] | 10 to 100
7 | C=CC(=O)N1CC[C@@H](N(C)c2nc(OC[C@@]34CCCN3C[C@H](F)C4)nc3c(F)c(-c4cncc(F)c4C4CC4)ncc23)C1 [Example 188] | ≥ 500
8 | CN1CC[C@H]1/C=C/C(=O)N1CC[C@@H](N(C)c2nc(OC[C@@]34CCCN3C[C@H](F)C4)nc3c(F)c(-c4nc(N)cc5cccc(Cl)c45)ncc23)C1 (single isomer, unassigned) [Example 6] | < 10
9 | CN(C)C/C=C/C(=O)N1CC[C@@H](N(C)c2nc(OC[C@@]34CCCN3C[C@H](F)C4)nc3c(F)c(-c4cccc(Cl)c4C4CC4)ncc23)C1 [Example 184] | 10 to 100
10 | C=CC(=O)N1CC(CN(C)c2nc(OCC34CCCN3CCC4)nc3c(F)c(-c4nc(N)cc(C)c4C4CC4)ncc23)C1 [Example 131, 1-(3-(((7-(6-amino-3-cyclopropyl-4-methylpyridin-2-yl)-8-fluoro-2-((tetrahydro-1H-pyrrolizin-7a(5H)-yl)methoxy)pyrido[4,3-d]pyrimidin-4-yl)(methyl)amino)methyl)azetidin-1-yl)prop-2-en-1-one] | ≥ 500
11 | CN(c1nc(OC[C@@]23CCCN2C[C@H](F)C3)nc2c(F)c(-c3cccc(Cl)c3C3CC3)ncc12)[C@@H]1CCN(C(=O)C#C[C@]2(C)CCCN2C)C1 [Example 208] | 10 to 100
12 | C=CC(=O)N1CC[C@@H](N(C)c2nc(OC[C@@]34CCCN3C[C@H](F)C4)nc3c(F)c(-c4c(O)cccc4C4CC4)ncc23)C1 [Example 218] | ≥ 500
13 | Cc1cc(N)nc(-c2ncc3c(N(C)[C@@H]4CCN(C(=O)/C=C/CN5CCOCC5)C4)nc(OC[C@@]45CCCN4C[C@H](F)C5)nc3c2F)c1C(F)(F)F [Example 120] | 100 to 500
14 | Cc1noc(/C=C/C(=O)N2CC[C@@H](N(C)c3nc(OC[C@@]45CCCN4C[C@H](F)C5)nc4c3C[C@@H](C)[C@H](c3nc(N)cc(C)c3C(F)(F)F)C4)C2)n1 [Example 136] | < 10
15 | C=CC(=O)N1CC[C@@H](N(C)c2nc(OC[C@@]34CCCN3C[C@H](F)C4)nc3c(F)c(-c4cc(O)cnc4C4CC4)ncc23)C1 [Example 253] | ≥ 500
16 | C=CC(=O)N1CC[C@@H](N(C)c2nc(OC[C@@]34CCCN3C[C@H](F)C4)nc3c(F)c(-c4nc(N)cc(C)c4C4CC4)ncc23)C1 [Example 5, 1-((R)-3-((7-(6-amino-3-cyclopropyl-4-methylpyridin-2-yl)-8-fluoro-2-(((2R,7aS)-2-fluorotetrahydro-1H-pyrrolizin-7a(5H)-yl)methoxy)pyrido[4,3-d]pyrimidin-4-yl)(methyl)amino)pyrrolidin-1-yl)prop-2-en-1-one] | 100 to 500
17 | C=CC(=O)N1CC[C@@H](N(C)c2nc(OC[C@@]34CCCN3C[C@H](F)C4)nc3c(F)c(-c4cccc5cn[nH]c45)ncc23)C1 [Example 264] | ≥ 500
18 | CN(CC1CN(C(=O)/C=C/CN2CCOCC2)C1)c1nc(OC[C@@]23CCCN2C[C@H](F)C3)nc2c(F)c(-c3nc(N)cc4cccc(F)c34)ncc12 [Example 80, (E)-1-(3-(((7-(3-amino-8-fluoroisoquinolin-1-yl)-8-fluoro-2-(((2R,7aS)-2-fluorotetrahydro-1H-pyrrolizin-7a(5H)-yl)methoxy)pyrido[4,3-d]pyrimidin-4-yl)(methyl)amino)methyl)azetidin-1-yl)-4-morpholinobut-2-en-1-one] | ≥ 500
19 | C=CC(=O)N1CC[C@@H](N(C)c2nc(OC[C@@]34CCCN3C[C@H](F)C4)nc3c2CCN(c2nc(N)cc(C)c2C(F)(F)F)C3)C1 [Example 111, 1-((R)-3-((7-(6-amino-4-methyl-3-(trifluoromethyl)pyridin-2-yl)-2-(((2R,7aS)-2-fluorotetrahydro-1H-pyrrolizin-7a(5H)-yl)methoxy)-5,6,7,8-tetrahydropyrido[3,4-d]pyrimidin-4-yl)(methyl)amino)pyrrolidin-1-yl)prop-2-en-1-one] | ≥ 500
20 | CN(CC1CN(C(=O)/C=C/c2nc(C(C)(F)F)no2)C1)c1nc(OC[C@@]23CCCN2C[C@H](F)C3)nc2c(F)c(-c3nc(N)cc4cccc(F)c34)ncc12 [Example 113] | < 10
21 | Cc1cc(N)nc(-c2ncc3c(N(C)[C@@H]4CCN(C(=O)/C=C/[C@@H]5CCN5C)C4)nc(OC[C@@]45CCCN4C[C@H](F)C5)nc3c2F)c1C(F)(F)F [Example 83] | < 10
22 | C=CC(=O)N1CC[C@@H](N(C)c2nc(OC[C@@]34CCCN3C[C@H](F)C4)nc3c(F)c(-c4nc(N)ccc4C4CC4)ncc23)C1 [Example 166, 1-((R)-3-((7-(6-amino-3-cyclopropylpyridin-2-yl)-8-fluoro-2-(((2R,7aS)-2-fluorotetrahydro-1H-pyrrolizin-7a(5H)-yl)methoxy)pyrido[4,3-d]pyrimidin-4-yl)(methyl)amino)pyrrolidin-1-yl)prop-2-en-1-one] | ≥ 500
23 | Cc1cc(N)nc(-c2ncc3c(N(C)[C@@H]4CCN(C(=O)/C=C/c5nc(C(C)C)no5)C4)nc(OC[C@@]45CCCN4C[C@H](F)C5)nc3c2F)c1C(F)(F)F [Example 71, (E)-1-((R)-3-((7-(6-amino-4-methyl-3-(trifluoromethyl)pyridin-2-yl)-8-fluoro-2-(((2R,7aS)-2-fluorotetrahydro-1H-pyrrolizin-7a(5H)-yl)methoxy)pyrido[4,3-d]pyrimidin-4-yl)(methyl)amino)pyrrolidin-1-yl)-3-(3-isopropyl-1,2,4-oxadiazol-5-yl)prop-2-en-1-one] | < 10
